In ChEMBL document CHEMBL4627289, “Design, synthesis and evaluation of unnatural peptides as T1R2/T1R3 PAMs” (Bioorg Med Chem Lett, 2020):

Target: T1R2/T1R3 (Homo sapiens) (UniProt Q8TE23+Q7RTX0)
Test: Positive allosteric modulation of human TIR2/TIR3 expressed in PEAKrapid cells assessed as potentiation of sucrose-induced intracellular calcium influx by measuring sucrose EC50 at 30 uM measured for 120 secs by fluorescence based assay relative to FEMA4774
Format: functional, cell-based

| Efficacy | Compound |
| --- | --- |
| 64% | CC(C)(C)CC(=O)NC(C)(C)CC(=O)Nc1cncc(C(=O)O)c1N |
| 50% | CC(C)(CC(=O)Nc1cncc(C(=O)O)c1N)NC(=O)c1ccccc1 |
| 92% | CC(C)(CC(=O)Nc1cncc(C(=O)O)c1N)NC(=O)[C@@H](NC(=O)[C@@H](N)C1CCCCC1)C1CCCCC1 |
| 55% | CCCCCCCC/C=C\CCCCCCCC(=O)NC(C)(C)CC(=O)Nc1cncc(C(=O)O)c1N |
| 85% | CC(C)C[C@H](NC(=O)[C@@H](NC(=O)OC(C)(C)C)C1CCCCC1)C(=O)NC(C)(C)CC(=O)Nc1cncc(C(=O)O)c1N |
| 54% | CC(C)(CC(=O)Nc1cncc(C(=O)O)c1N)NC(=O)C1(c2ccccc2)CC1 |
| 59% | CCCCCCC(=O)NC(C)(C)CC(=O)Nc1cncc(C(=O)O)c1N |
| 73% | CC(C)C[C@H](N)C(=O)NC(C)(C)CC(=O)Nc1cncc(C(=O)O)c1N |
| 56% | CC(C)(CC(=O)Nc1cncc(C(=O)O)c1N)NC(=O)c1cccc(N)c1 |
| 57% | CC(C)(CC(=O)Nc1cncc(C(=O)O)c1N)NC(=O)[C@@H]1CCC[C@H](N)C1 |
| 76% | CC[C@H](C)[C@H](NC(=O)[C@@H](N)C1CCCCC1)C(=O)NC(C)(C)CC(=O)Nc1cncc(C(=O)O)c1N |
| 54% | CC(C)C(=O)NC(C)(C)CC(=O)Nc1cncc(C(=O)O)c1N |
| 85% | CC(C)(CC(=O)Nc1cncc(C(=O)O)c1N)NC(=O)CC1CCCCC1 |
| 96% | CC(C)(CC(=O)Nc1cncc(C(=O)O)c1N)NC(=O)[C@@H](N)C1CCCCC1 |
| 84% | CC[C@H](C)[C@H](NC(=O)[C@@H](NC(=O)OC(C)(C)C)C1CCCCC1)C(=O)NC(C)(C)CC(=O)Nc1cncc(C(=O)O)c1N |
| 56% | CC(C)(CC(=O)Nc1cncc(C(=O)O)c1N)NC(=O)C1CCNCC1 |
| 55% | CC(C)(CC(=O)Nc1cncc(C(=O)O)c1N)NC(=O)C1CCNC1 (centres undefined) |
| 65% | CCCCCC(=O)NC(C)(C)CC(=O)Nc1cncc(C(=O)O)c1N |
| 56% | CC(C)(CC(=O)Nc1cncc(C(=O)O)c1N)NC(=O)c1ccc(N)cc1 |
| 59% | CC(C)(CC(=O)Nc1cncc(C(=O)O)c1N)NC(=O)[C@H](N)C1CCCCC1 |

| Efficacy | Compound |
| --- | --- |
| 54% | CC(C)(CC(=O)Nc1cncc(C(=O)O)c1N)NC(=O)CC[C@@H](N)Cc1ccccc1 |
| 79% | CC(C)(CC(=O)Nc1cncc(C(=O)O)c1N)NC(=O)CC1CCCC1 |
| 57% | CCCCCCCC(=O)NC(C)(C)CC(=O)Nc1cncc(C(=O)O)c1N |
| 58% | CC(C)(CC(=O)Nc1cncc(C(=O)O)c1N)NC(=O)C(C)(C)C |
| 52% | CC(C)(CC(=O)Nc1cncc(C(=O)O)c1N)NC(=O)C[C@H]1CCNC1 |
| 50% | CCCCCCCCCCCC(=O)NC(C)(C)CC(=O)Nc1cncc(C(=O)O)c1N |
| 60% | CC(C)CC(=O)NC(C)(C)CC(=O)Nc1cncc(C(=O)O)c1N |
| 55% | CC(C)(CC(=O)Nc1cncc(C(=O)O)c1N)NC(=O)[C@H]1CC[C@H](N)CC1 |
| 61% | CC(C)(CC(=O)Nc1cncc(C(=O)O)c1N)NC(=O)[C@@H](N)c1ccccc1 |
| 77% | CC(C)C[C@H](NC(=O)[C@@H](N)C1CCCCC1)C(=O)NC(C)(C)CC(=O)Nc1cncc(C(=O)O)c1N |
| 56% | CC(C)(CC(=O)Nc1cncc(C(=O)O)c1N)NC(=O)C[C@@H]1CCNC1 |
| 61% | CC(C)[C@H](N)C(=O)NC(C)(C)CC(=O)Nc1cncc(C(=O)O)c1N |
| 80% | CC(C)(CC(=O)Nc1cncc(C(=O)O)c1N)NC(=O)CC1(CN)CCCCC1 |
| 59% | CC(C)(CC(=O)Nc1cncc(C(=O)O)c1N)NC(=O)C1(N)CCCCC1 |
| 71% | CC(C)(CC(=O)Nc1cncc(C(=O)O)c1N)NC(=O)C1CCCCC1 |
| 57% | CC(C)(CC(=O)Nc1cncc(C(=O)O)c1N)NC(=O)[C@@H](N)CC1CCCCC1 |
| 73% | CC(C)(CC(=O)Nc1cncc(C(=O)O)c1N)NC(=O)c1cccc2c1CCCC2 |
| 58% | CC(C)(CC(=O)Nc1cncc(C(=O)O)c1N)NC(=O)[C@H]1CC[C@@H](N)CC1 |
| 65% | CC(C)(CC(=O)Nc1cncc(C(=O)O)c1N)NC(=O)CCC1CCCCC1 |
